Data from ChEMBL document CHEMBL1201862, “PubChem BioAssay data set” (2004).
Values joined by “and” are separate entries in the source; they are usually repeats but may differ in a detail not shown here. Equal values may be shown once.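 Growth conditions: 96-well plates. Treatment: test compound, 48 hours, 5 concentrations. Analysis: linear interpolation between bracketing concentrations; unreached endpoints set to highest concentration. The concentration for 50% growth inhibition is given as GI50.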 Active and inactive are the calls of the source. Rule as the data show it: active = GI50 up to about 1.1 µM and inactive = higher.

Legend:
Test in all cases: NCI-60 cell line screen, 48 h
[1] = test system: CCRF-CEM
[2] = test system: OVCAR-3
[3] = test system: MDA-N
[4] = test system: COLO 205
[5] = test system: SF-268
[6] = test system: K562
[7] = test system: HL-60
[8] = test system: UACC-257
[9] = test system: HOP-92
[10] = test system: SN12C
[11] = test system: ACHN
[12] = test system: HCC 2998
[13] = test system: A549
[14] = test system: SK-MEL-5
[15] = test system: HT-29
[16] = test system: TK-10
[17] = test system: RPMI-8226
[18] = test system: HOP-62
[19] = test system: SK-MEL-28
[20] = test system: CAKI-1
[21] = test system: EKVX
[22] = test system: HCT-15
[23] = test system: UACC-62
[24] = test system: MCF7
[25] = test system: MOLT-4
[26] = test system: UO-31
[27] = test system: NCI-H23
[28] = test system: BT-549
[29] = test system: OVCAR-8
[30] = test system: SF-539
[31] = test system: NCI-H460
[32] = test system: LOX IMVI
[33] = test system: PC-3
[34] = test system: M14
[35] = test system: Malme-3M
[36] = test system: MDA-MB-435
[37] = test system: IGROV-1
[38] = test system: A498
[39] = test system: OVCAR-5
[40] = test system: 786-0
[41] = test system: SK-MEL-2
[42] = test system: HCT-116
[43] = test system: SK-OV-3
[44] = test system: OVCAR-4
[45] = test system: NCI/ADR-RES
[46] = test system: SNB-19
[47] = test system: Hs-578T
[48] = test system: SR
[49] = test system: SF-295
[50] = test system: SW-620
[51] = test system: NCI-H522
[52] = test system: KM12
[53] = test system: SNB-75
[54] = test system: RXF 393
[55] = test system: DU-145
[56] = test system: T47D
[57] = test system: NCI-H226
[58] = test system: U-251

`C/C=C1\CN(C(=O)OC(C)(C)C)C1C(=O)OC(C)(C)C` (stereo not given) was tested, and the GI50 [1] was > 100 µM (inactive), the GI50 [2] was 94 µM (inactive) and the GI50 [3] was > 100 µM (inactive). The GI50 [4] was > 100 µM (inactive), the GI50 [5] was > 100 µM (inactive) and the GI50 [6] was > 100 µM (inactive). For the same compound, the GI50 [7] was 21.3 µM (inactive), the GI50 [8] was > 100 µM (inactive) and the GI50 [9] was > 100 µM (inactive). For the same compound, the GI50 [10] was > 100 µM (inactive), the GI50 [11] was > 100 µM (inactive) and the GI50 [12] was > 100 µM (inactive). The GI50 [13] was > 100 µM (inactive), the GI50 [14] was > 100 µM (inactive) and the GI50 [15] was > 100 µM (inactive). The GI50 [16] was > 100 µM (inactive), the GI50 [17] was 68.7 µM (inactive) and the GI50 [18] was > 100 µM (inactive). The GI50 [19] was > 100 µM (inactive), the GI50 [20] was > 100 µM (inactive) and the GI50 [21] was > 100 µM (inactive). For the same compound, the GI50 [22] was > 100 µM, the GI50 [23] was > 100 µM (inactive) and the GI50 [24] was > 100 µM (inactive). For the same compound, the GI50 [25] was > 100 µM (inactive), the GI50 [26] was 63.7 µM (inactive) and the GI50 [27] was > 100 µM (inactive). The GI50 [28] was > 100 µM (inactive), the GI50 [29] was > 100 µM (inactive) and the GI50 [30] was > 100 µM (inactive). The GI50 [31] was > 100 µM (inactive), the GI50 [32] was > 100 µM (inactive) and the GI50 [33] was > 100 µM (inactive). For the same compound, the GI50 [34] was > 100 µM (inactive), the GI50 [35] was > 100 µM (inactive) and the GI50 [36] was > 100 µM (inactive). For the same compound, the GI50 [37] was > 100 µM (inactive), the GI50 [38] was > 100 µM (inactive) and the GI50 [39] was > 100 µM (inactive). For the same compound, the GI50 [40] was > 100 µM (inactive), the GI50 [41] was > 100 µM (inactive) and the GI50 [42] was > 100 µM (inactive). For the same compound, the GI50 [43] was > 100 µM (inactive), the GI50 [44] was 53.6 µM (inactive) and the GI50 [45] was > 100 µM (inactive). For the same compound, the GI50 [46] was > 100 µM (inactive), the GI50 [47] was 27.7 µM (inactive) and the GI50 [48] was > 100 µM (inactive). For the same compound, the GI50 [49] was > 100 µM (inactive) and the GI50 [50] was > 100 µM (inactive).

With `CC(=O)OCC1OC(OC(C)(C)CC/C=C(\C)[C@@H]2C/C=C(\C)CC/C=C(\C)CC2)C(O)C(O)C1OC(C)=O` (stereo not given in full) the GI50 [1] was 22.5 µM (inactive) and 14 µM (inactive), the GI50 [3] was 24.7 µM (inactive) and 19.7 µM (inactive) and the GI50 [5] was 27 µM (inactive) and 19.8 µM (inactive). For the same compound, the GI50 [6] was 28.7 µM (inactive) and 22.4 µM (inactive), the GI50 [7] was 28.5 µM (inactive) and the GI50 [10] was 32 µM (inactive) and 20 µM (inactive). The GI50 [14] was 17.5 µM (inactive) and 30.1 µM (inactive), the GI50 [15] was 24.5 µM (inactive) and 14.9 µM (inactive) and the GI50 [17] was 25.5 µM (inactive) and 19.7 µM (inactive). For the same compound, the GI50 [25] was 17 µM (inactive) and > 10 µM (inactive), the GI50 [51] was 18.9 µM (inactive) and 11.3 µM (inactive) and the GI50 [28] was 33.9 µM (inactive) and 19.7 µM (inactive). For the same compound, the GI50 [29] was 20.6 µM (inactive) and 28.6 µM (inactive), the GI50 [31] was 17.9 µM (inactive) and 23.2 µM (inactive) and the GI50 [32] was 18.5 µM (inactive) and 21.3 µM (inactive). The GI50 [52] was 26.7 µM (inactive) and 19 µM (inactive), the GI50 [36] was 32.8 µM (inactive) and 20.2 µM (inactive) and the GI50 [37] was 17.5 µM (inactive) and 21.6 µM (inactive). The GI50 [53] was 17.4 µM (inactive) and 17.1 µM (inactive), the GI50 [40] was 39.4 µM (inactive) and 23.6 µM (inactive) and the GI50 [42] was 25 µM (inactive) and 22.9 µM (inactive). The GI50 [47] was 0.3 µM (active), the GI50 [54] was > 100 µM (inactive) and the GI50 [49] was 22.9 µM (inactive) and 42.3 µM (inactive). For the same compound, the GI50 [50] was 26.1 µM (inactive) and 24.2 µM (inactive).

With `O=c1c2cc(I)ccc2nc(-c2cccs2)n1-c1ccc(O)cc1` the GI50 [2] was 9.51 µM (inactive), the GI50 [3] was 14.6 µM (inactive) and the GI50 [4] was 17.2 µM (inactive). For the same compound, the GI50 [5] was 14.1 µM (inactive), the GI50 [6] was 24.2 µM (inactive) and the GI50 [7] was 7.82 µM (inactive). The GI50 [55] was 6.78 µM (inactive), the GI50 [56] was 1.56 µM (inactive) and the GI50 [8] was < 0.01 µM (active). For the same compound, the GI50 [9] was 10.1 µM (inactive), the GI50 [10] was 15.5 µM (inactive) and the GI50 [11] was 8.2 µM (inactive). For the same compound, the GI50 [12] was 16.1 µM (inactive), the GI50 [13] was 10.2 µM (inactive) and the GI50 [14] was 11.6 µM (inactive). The GI50 [15] was 13 µM (inactive), the GI50 [16] was 10.7 µM (inactive) and the GI50 [17] was 3.37 µM (inactive). For the same compound, the GI50 [18] was 17.5 µM (inactive), the GI50 [19] was 16 µM (inactive) and the GI50 [20] was 17.1 µM (inactive). The GI50 [21] was 14.4 µM (inactive), the GI50 [22] was 12.4 µM and the GI50 [23] was 13.1 µM (inactive). For the same compound, the GI50 [24] was 11.5 µM (inactive), the GI50 [57] was 14.4 µM (inactive) and the GI50 [25] was 6.04 µM (inactive). For the same compound, the GI50 [51] was 13.1 µM (inactive), the GI50 [26] was 10.4 µM (inactive) and the GI50 [27] was 16.7 µM (inactive). The GI50 [28] was 14.5 µM (inactive), the GI50 [29] was 15.5 µM (inactive) and the GI50 [30] was < 0.01 µM (active). The GI50 [31] was 14.9 µM (inactive), the GI50 [32] was 11.6 µM (inactive) and the GI50 [33] was 10.6 µM (inactive). The GI50 [52] was 11.2 µM (inactive), the GI50 [34] was 15.8 µM (inactive) and the GI50 [35] was 5.4 µM (inactive). The GI50 [36] was 12 µM (inactive), the GI50 [37] was 13.5 µM (inactive) and the GI50 [39] was 15.5 µM (inactive). For the same compound, the GI50 [40] was 16.3 µM (inactive), the GI50 [41] was 15.6 µM (inactive) and the GI50 [42] was 14.3 µM (inactive). For the same compound, the GI50 [58] was 17.9 µM (inactive), the GI50 [44] was 12.6 µM (inactive) and the GI50 [45] was 17.8 µM (inactive). The GI50 [46] was 16.6 µM (inactive), the GI50 [48] was 17.4 µM (inactive) and the GI50 [54] was 14.8 µM (inactive). The GI50 [49] was 12.6 µM (inactive) and the GI50 [50] was 22.2 µM (inactive).

With `O=C(NCCCNC(=O)c1ccc2cc(O)c(O)cc2c1)c1ccc2cc(O)c(O)cc2c1` the GI50 [1] was 27.1 µM (inactive), the GI50 [3] was 31.7 µM (inactive) and the GI50 [4] was 30.7 µM (inactive). The GI50 [5] was 28.8 µM (inactive), the GI50 [6] was 33.7 µM (inactive) and the GI50 [7] was 19.2 µM (inactive). The GI50 [55] was 26.7 µM (inactive), the GI50 [56] was 26.7 µM (inactive) and the GI50 [8] was 36.4 µM (inactive). The GI50 [9] was 14.2 µM (inactive), the GI50 [11] was 23.9 µM (inactive) and the GI50 [12] was 18.6 µM (inactive). The GI50 [13] was 69.8 µM (inactive), the GI50 [14] was 22.8 µM (inactive) and the GI50 [15] was 23.4 µM (inactive). The GI50 [16] was 37.9 µM (inactive), the GI50 [17] was 29.3 µM (inactive) and the GI50 [18] was 25.1 µM (inactive). For the same compound, the GI50 [19] was 40.4 µM (inactive), the GI50 [20] was > 100 µM (inactive) and the GI50 [21] was 27.9 µM (inactive). For the same compound, the GI50 [22] was 19.9 µM, the GI50 [23] was 20 µM (inactive) and the GI50 [24] was 30.9 µM (inactive). The GI50 [57] was 18.4 µM (inactive), the GI50 [25] was 30 µM (inactive) and the GI50 [51] was 29.6 µM (inactive). For the same compound, the GI50 [26] was 34.1 µM (inactive), the GI50 [27] was 22.5 µM (inactive) and the GI50 [28] was 26.9 µM (inactive). For the same compound, the GI50 [29] was 35.2 µM (inactive), the GI50 [30] was 16.5 µM (inactive) and the GI50 [31] was 34 µM (inactive). The GI50 [32] was 24.2 µM (inactive), the GI50 [33] was 27.4 µM (inactive) and the GI50 [52] was 37.9 µM (inactive). The GI50 [34] was 45.7 µM (inactive), the GI50 [35] was 28.6 µM (inactive) and the GI50 [36] was 32.4 µM (inactive). The GI50 [37] was 35.6 µM (inactive), the GI50 [53] was 22.8 µM (inactive) and the GI50 [38] was 63.4 µM (inactive). The GI50 [39] was 63 µM (inactive), the GI50 [41] was 13.1 µM (inactive) and the GI50 [42] was 37.4 µM (inactive). The GI50 [58] was 21.9 µM (inactive), the GI50 [44] was 16.7 µM (inactive) and the GI50 [45] was > 100 µM (inactive). For the same compound, the GI50 [46] was 18.3 µM (inactive), the GI50 [48] was 25.3 µM (inactive) and the GI50 [54] was 24.7 µM (inactive). The GI50 [50] was 43 µM (inactive).
